Experimental data taken from PubChem BioAssay AID1963829 (Molecular Pharmacology Branch, DTP, NCI, 2024).

Test system: 935938-334-R-J1-PDC complex spheroid viability
Assay: Anticancer human tumor 935938-334-R-J1-PDC patient-derived small intestine adenocarcinoma cell line growth inhibition [POLQ]
Conditions: for IC50: curve of first compound; for viability, T/C: stronger effect = lower value
Method: Multicellular complex tumor spheroid response to Polymerase (POL) inhibitors (novobiocin, ART-558, RP6685) in combination with a variety of drugs and investigational agents in selected tumor cell lines
The POL inhibitors (novobiocin, ART-558, and RP6685) were evaluated both individually and in combination with standard of care and investigational anticancer small molecules within a complex spheroid model of solid tumors. . Complex spheroids include a stromal component modeled by human endothelial cells (HUVEC) and fibroblasts modeled by human mesenchymal stem cells (MSCs). The concentration ranges selected for each drug and investigational agent were based upon clinically achievable concentrations if the clinical Cmax of the agent was known.
Compounds. The drugs and investigational agents: novobiocin (NSC847541), ART-558 (NSC835418), RP-6685 (NSC848927), peposertib (NSC802822), ceralasertib (NSC780249), elimusertib (NSC800525), camonsertib (NSC841442), AZD-1390 (NSC803789), olaparib (NSC753686), talazoparib (NSC767125), rucaparib (NSC756644), sotorasib (NSC818433), MRTX-1133 (NSC836407), SN-38 (NSC673596), topotecan (NSC609699), epotoside (NSC141540), doxorubicin (NSC123127), gemcitabine (NSC613327), 5-fluorouracil (NSC19893), paclitaxel (NSC125973), vemurafenib (NSC761431), MSA-2 (NSC828583), SN-011 (NSC837082), adavosertib (NSC754352), prexasertib (NSC758257), carboplatin (NSC241240) and oxaliplatin (NSC266046), were obtained from the National Cancer Institute (NCI) Developmental Therapeutics Program Chemical Repository (21). The FDA-approved anticancer drug set is available from the Developmental Therapeutics Program at https://dtp.cancer.gov/organization/dscb/obtaining/. […] The stock solutions were prepared in dimethyl sulfoxide (DMSO, Sigma-Aldrich, St. Louis, MO, cat. D2650), except for the platinum compounds which were prepared in saline (Quality Biological, Gaithersburg, MD, cat. 114-055-101), at 800-fold the tested concentration and stored at -70 degrees C prior to their use. All drugs and investigational agents were tested over a range starting from a high concentration at or near the clinical Cmax and decreasing in half-log increments. If the clinical Cmax for an agent had not been determined, the highest concentration tested was 10 microM, except for SN-38, which was tested at a high concentration of 1 microM.
Cell Culture. All cells were maintained in an incubator at 37 degrees C and 5% CO2 with 95% humidity. The PDC lines were cultured according to standard operating procedures established by the NCI PDMR (https://pdmr.cancer.gov). Table 3 of the manuscript, lists the cell lines along with the number of the three cell types plated to form the mct-spheroids and media for tumor cell growth. After thawing, all PDC lines, except 997537-175-T-J1-PDC and 415267-285-R-J2-PDC, were cultured in Matrigel-coated flasks prepared with a working solution of 1X Ham's F-12 nutrient mix, without supplementation (Thermo Fisher Scientific, cat. 11765054), 100 U/mL penicillin-streptomycin (Thermo Fisher Scientific, cat. 15140122), and 2.5% Matrigel (Corning Inc., Corning, NY, cat. 354248) for the first three passages. The two PDC lines 997537-175-T-J1-PDC and 415267-285-R-J2-PDC were cultured on uncoated flasks. The 857933-349-R-J2-PDC line was cultured in 6C/Colon 1B media containing advanced DMEM/F-12 (Thermo Fisher Scientific, cat. 12634028), 10 mM HEPES (Thermo Fisher Scientific, cat. 15630080), 1X GlutaMAX supplement (Thermo Fisher Scientific, cat. 35050061), 0.1 mg/mL primocin (InvivoGen, San Diego, CA, cat. ant-pm-2), 10% defined fetal bovine serum, heat inactivated (HyClone Laboratories Inc., Logan, UT, cat. SH30070.03HI), 50% L-WRN conditioned media (ATCC, cat. CRL-3276), 1.25 mM N-Acetyl-L-cysteine (Sigma-Aldrich, cat. A9165), 10 mM nicotinamide (Sigma-Aldrich, cat. N0636), 1X B-27 supplement (Thermo Fisher Scientific, cat. 17504044), 1X N-2 supplement (Thermo Fisher Scientific, cat. […]

[1] = second compound 0.0316 µM, first compound 0.0316 µM
[2] = second compound 0.0316 µM, first compound 0.1 µM
[3] = second compound 0.0316 µM, first compound 0.316 µM
[4] = second compound 0.0316 µM, first compound 1 µM
[5] = second compound 0.1 µM, first compound 0.0316 µM
[6] = second compound 0.1 µM, first compound 0.1 µM
[7] = second compound 0.1 µM, first compound 0.316 µM
[8] = second compound 0.1 µM, first compound 1 µM
[9] = second compound 0.316 µM, first compound 0.0316 µM
[10] = second compound 0.316 µM, first compound 0.1 µM
[11] = second compound 0.316 µM, first compound 0.316 µM
[12] = second compound 0.316 µM, first compound 1 µM
[13] = second compound 1 µM, first compound 0.0316 µM
[14] = second compound 1 µM, first compound 0.1 µM
[15] = second compound 1 µM, first compound 0.316 µM
[16] = second compound 1 µM, first compound 1 µM
[17] = second compound 3.16 µM, first compound 0.0316 µM
[18] = second compound 3.16 µM, first compound 0.1 µM
[19] = second compound 3.16 µM, first compound 0.316 µM
[20] = second compound 3.16 µM, first compound 1 µM
[21] = second compound 10 µM, first compound 0.0316 µM
[22] = second compound 10 µM, first compound 0.1 µM
[23] = second compound 10 µM, first compound 0.316 µM
[24] = second compound 10 µM, first compound 1 µM
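Note: spheroids exposed to drugs for seven days before viability read.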
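Throughout, for viability, T/C: 100% = DMSO vehicle control wells.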

SMILES: C=CCn1c(=O)c2cnc(Nc3ccc(N4CCN(C)CC4)cc3)nc2n1-c1cccc(C(C)(C)O)n1 + COC1C(OC(N)=O)C(O)C(Oc2ccc3c(O)c(NC(=O)c4ccc(O)c(CC=C(C)C)c4)c(=O)oc3c2C)OC1(C)C
- IC50 (second compound 0.0316 µM): 0.651 µM
- IC50 (second compound 0.1 µM): 0.593 µM
- IC50 (second compound 0.316 µM): 0.729 µM
- IC50 (second compound 1 µM): 0.585 µM
- IC50 (second compound 3.16 µM): 0.617 µM
- IC50 (second compound 10 µM): 0.392 µM
- viability, T/C (second compound 0.0316 µM, first compound 0.00316 µM): 97.9%
- viability, T/C (second compound 0.0316 µM, first compound 0.01 µM): 135%
- viability, T/C [1]: 82.4%
- viability, T/C [2]: 135%
- viability, T/C [3]: 84.5%
- viability, T/C [4]: 29.5%
- viability, T/C (second compound 0.1 µM, first compound 0.00316 µM): 136%
- viability, T/C (second compound 0.1 µM, first compound 0.01 µM): 111%
- viability, T/C [5]: 88.8%
- viability, T/C [6]: 134%
- viability, T/C [7]: 71.4%
- viability, T/C [8]: 32.1%
- viability, T/C (second compound 0.316 µM, first compound 0.00316 µM): 126%
- viability, T/C (second compound 0.316 µM, first compound 0.01 µM): 96.7%
- viability, T/C [9]: 80.4%
- viability, T/C [10]: 128%
- viability, T/C [11]: 78.1%
- viability, T/C [12]: 39.4%
- viability, T/C (second compound 1 µM, first compound 0.00316 µM): 93.1%
- viability, T/C (second compound 1 µM, first compound 0.01 µM): 112%
- viability, T/C [13]: 123%
- viability, T/C [14]: 86.3%
- viability, T/C [15]: 74.8%
- viability, T/C [16]: 30.4%
- viability, T/C (second compound 3.16 µM, first compound 0.00316 µM): 130%
- viability, T/C (second compound 3.16 µM, first compound 0.01 µM): 96.8%
- viability, T/C [17]: 100%
- viability, T/C [18]: 112%
- viability, T/C [19]: 82.5%
- viability, T/C [20]: 26.6%
- viability, T/C (second compound 10 µM, first compound 0.00316 µM): 90.5%
- viability, T/C (second compound 10 µM, first compound 0.01 µM): 115%
- viability, T/C [21]: 120%
- viability, T/C [22]: 86.7%
- viability, T/C [23]: 57.9%
- viability, T/C [24]: 24.5%

SMILES: CCCS(=O)(=O)Nc1ccc(F)c(C(=O)c2c[nH]c3ncc(-c4ccc(Cl)cc4)cc23)c1F + COC1C(OC(N)=O)C(O)C(Oc2ccc3c(O)c(NC(=O)c4ccc(O)c(CC=C(C)C)c4)c(=O)oc3c2C)OC1(C)C
- IC50 (second compound 0.0316 µM): 9.13 µM
- IC50 (second compound 0.1 µM): 8.46 µM
- IC50 (second compound 0.316 µM): 9.27 µM
- IC50 (second compound 1 µM): 8.52 µM
- IC50 (second compound 3.16 µM): 9.73 µM
- IC50 (second compound 10 µM): 9.94 µM
- viability, T/C [1]: 96.1%
- viability, T/C [2]: 142%
- viability, T/C [3]: 118%
- viability, T/C [4]: 111%
- viability, T/C (second compound 0.0316 µM, first compound 3.16 µM): 101%
- viability, T/C (second compound 0.0316 µM, first compound 10 µM): 45.4%
- viability, T/C [5]: 113%
- viability, T/C [6]: 80.5%
- viability, T/C [7]: 103%
- viability, T/C [8]: 110%
- viability, T/C (second compound 0.1 µM, first compound 3.16 µM): 134%
- viability, T/C (second compound 0.1 µM, first compound 10 µM): 40.2%
- viability, T/C [9]: 73.6%
- viability, T/C [10]: 98.8%
- viability, T/C [11]: 119%
- viability, T/C [12]: 121%
- viability, T/C (second compound 0.316 µM, first compound 3.16 µM): 125%
- viability, T/C (second compound 0.316 µM, first compound 10 µM): 45.9%
- viability, T/C [13]: 116%
- viability, T/C [14]: 117%
- viability, T/C [15]: 101%
- viability, T/C [16]: 131%
- viability, T/C (second compound 1 µM, first compound 3.16 µM): 111%
- viability, T/C (second compound 1 µM, first compound 10 µM): 40.1%
- viability, T/C [17]: 114%
- viability, T/C [18]: 107%
- viability, T/C [19]: 120%
- viability, T/C [20]: 147%
- viability, T/C (second compound 3.16 µM, first compound 3.16 µM): 111%
- viability, T/C (second compound 3.16 µM, first compound 10 µM): 48.7%
- viability, T/C [21]: 104%
- viability, T/C [22]: 97.6%
- viability, T/C [23]: 130%
- viability, T/C [24]: 129%
- viability, T/C (second compound 10 µM, first compound 3.16 µM): 127%
- viability, T/C (second compound 10 µM, first compound 10 µM): 49.6%
